Measurements from US20160326142A1, “PYRAZOLE CARBOXAMIDE COMPOUNDS, COMPOSITIONS AND METHODS OF USE” (Genentech, Inc., priority 2012, published 2016).
pKi: −log10 of the molar value.

target: T1, ITK (Homo sapiens, UniProt Q08881); assay: ITK enzyme assay (Caliper or LCMS peptide phosphorylation); assay type: biochemical; settings: purified ITK (Invitrogen PV3875), 20 μM ATP, Ki by Morrison's quadratic equation
T1 construct: purchased Invitrogen PV3875
T1 sequence (Q08881 1-620): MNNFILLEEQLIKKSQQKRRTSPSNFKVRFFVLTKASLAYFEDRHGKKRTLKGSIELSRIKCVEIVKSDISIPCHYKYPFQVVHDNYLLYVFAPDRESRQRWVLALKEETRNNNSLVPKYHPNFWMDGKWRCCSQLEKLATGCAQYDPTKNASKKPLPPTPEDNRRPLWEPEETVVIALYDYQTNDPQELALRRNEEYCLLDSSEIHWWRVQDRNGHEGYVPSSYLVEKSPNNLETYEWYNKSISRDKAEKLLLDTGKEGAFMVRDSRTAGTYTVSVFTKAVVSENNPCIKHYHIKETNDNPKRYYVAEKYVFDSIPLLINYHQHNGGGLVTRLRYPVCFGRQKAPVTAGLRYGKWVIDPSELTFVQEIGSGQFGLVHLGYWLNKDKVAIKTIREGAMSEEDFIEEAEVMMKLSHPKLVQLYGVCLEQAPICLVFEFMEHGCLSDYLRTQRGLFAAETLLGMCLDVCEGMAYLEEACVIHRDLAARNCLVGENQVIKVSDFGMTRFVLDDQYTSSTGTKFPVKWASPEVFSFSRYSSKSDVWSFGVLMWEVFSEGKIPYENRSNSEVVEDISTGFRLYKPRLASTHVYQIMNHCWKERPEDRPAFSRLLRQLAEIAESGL
Procedure: The ability of purified ITK (Invitrogen PV3875) to catalyze peptide phosphorylation is monitored using a Caliper LabChip 3000 microfluidic unit (Caliper assay) or by liquid chromatography-mass spectrometry (LCMS) using a Waters Acquity system (LCMS assay). […] Reactions are quenched by the addition of 2,2′,2″,2′″-(ethane-1,2-diyldinitrilo)tetraacetic acid (50 mM final). Non-phosphorylated substrate and phosphorylated product peptides are separated and quantified using a Caliper LabChip 3000 instrument. […] Reactions are quenched by the addition of trichloroacetic acid (5% v/v final). Non-phosphorylated substrate and phosphorylated product peptides are separated by ultra performance LC and detected by a coupled triple quadrupole MS device applying multiple reaction monitoring (MRM) for quantification. The area of the MRM-extracted mass signal is used to assess the inhibition by test compounds. Equilibrium dissociation constant (Ki) values for ITK inhibitors are calculated from plots of activity vs. inhibitor concentration using Morrison's quadratic equation that accounts for the potential of tight binding, and by also applying the conversion factor that accounts for competitive inhibition and the concentration of ATP used in the assay relative to its apparent Michaelis constant (Km,app).

| SMILES | pKi |
| --- | --- |
| CCC(c1cnn(CC)c1)n1cc(NC(=O)c2n[nH]c3c2CCC(C)(C)C3)cn1 (single isomer, unassigned) [Example 99b, N-(1-(1-(1-ethyl-1H-pyrazol-4-yl)propyl)-1H-pyrazol-4-yl)-6,6-dimethyl-4,5,6,7-tetrahydro-1H-indazole-3-carboxamide] | 8.40 |
| CC1(C)Cc2[nH]nc(C(=O)Nc3cnn(Cc4ccccc4)c3)c2CCO1 [Example 71a, N-(1-benzyl-1H-pyrazol-4-yl)-7,7-dimethyl-4,5,7,8-tetrahydro-1H-oxepino[4,5-c]pyrazole-3-carboxamide] | 5.40 |
| CN(C)CCC(c1ccccc1)n1cc(NC(=O)c2n[nH]c3c2CC2CC2C3)cn1 (single isomer, unassigned) [Example 28a, N-(1-(3-(dimethylamino)-1-phenylpropyl)-1H-pyrazol-4-yl)-1,4,4a,5,5a,6-hexahydrocyclopropa[f]indazole-3-carboxamide] | 7.80 |
| CC1(C)CCc2c(C(=O)Nc3cnn(C(c4ccccc4)C4CN(S(C)(=O)=O)C4)c3)n[nH]c2C1 (single isomer, unassigned) [Example 45b, 6,6-dimethyl-N-(1-((1-(methylsulfonyl)azetidin-3-yl)(phenyl)methyl)-1H-pyrazol-4-yl)-4,5,6,7-tetrahydro-1H-indazole-3-carboxamide] | 7.32 |
| CC(c1cncs1)n1cc(NC(=O)c2n[nH]c3c2CCC(C)(C)C3)cn1 (single isomer, unassigned) [Example 98b, 6,6-dimethyl-N-(1-(1-(thiazol-5-yl)ethyl)-1H-pyrazol-4-yl)-4,5,6,7-tetrahydro-1H-indazole-3-carboxamide] | 8.70 |
| CC1(C)CCc2c(C(=O)Nc3cnn(C(c4ccccc4)C4CC[N+](C)([O-])CC4)c3)n[nH]c2C1 (single isomer, unassigned) [Example 140a, 4-((4-(6,6-dimethyl-4,5,6,7-tetrahydro-1H-indazole-3-carboxamido)-1H-pyrazol-1-yl)(phenyl)methyl)-1-methylpiperidine 1-oxide] | 9.40 |
| CC12Cc3[nH]nc(C(=O)Nc4cnn(C(c5cccnc5)C5CC[S+]([O-])CC5)c4)c3CC1C2 (single isomer, unassigned) [Example 146c, 5a-methyl-N-(1-((1-oxidotetrahydro-2H-thiopyran-4-yl)(pyridin-3-yl)methyl)-1H-pyrazol-4-yl)-1,4,4a,5,5a,6-hexahydrocyclopropa[f]indazole-3-carboxamide] | 10.00 |
| CC1(C)CCc2c(C(=O)Nc3cnn([C@@H]4COC[C@H]4c4ccccc4)c3)n[nH]c2C1 (single isomer, unassigned) [Example 135a, 6,6-dimethyl-N-(1-(4-phenyltetrahydrofuran-3-yl)-1H-pyrazol-4-yl)-4,5,6,7-tetrahydro-1H-indazole-3-carboxamide] | 6.89 |
| CC1(C)CCc2c(C(=O)Nc3cnn(C(CN4CCOCC4=O)c4ccccc4)c3)n[nH]c2C1 (single isomer, unassigned) [Example 77a, 6,6-dimethyl-N-(1-(2-(3-oxomorpholino)-1-phenylethyl)-1H-pyrazol-4-yl)-4,5,6,7-tetrahydro-1H-indazole-3-carboxamide] | 7.70 |
| CC[C@@H](c1ccccc1)n1cc(NC(=O)c2n[nH]c3c2C2CC2CC3)cn1 (single isomer, unassigned) [Example 25b] | 7.03 |
| N#Cc1cccc(Cn2cc(NC(=O)c3n[nH]c4c3CCC(c3cncnc3)C4)cn2)c1 (single isomer, unassigned) [Example 4b, N-(1-(3-cyanobenzyl)-1H-pyrazol-4-yl)-6-(pyrimidin-5-yl)-4,5,6,7-tetrahydro-1H-indazole-3-carboxamide] | 6.62 |
| CN1CCN(CC(c2ccccc2)n2cc(NC(=O)c3n[nH]c4c3CCC(C)(C)C4)cn2)C1=O (single isomer, unassigned) [Example 131a, 6,6-dimethyl-N-(1-(2-(3-methyl-2-oxoimidazolidin-1-yl)-1-phenylethyl)-1H-pyrazol-4-yl)-4,5,6,7-tetrahydro-1H-indazole-3-carboxamide] | 9.00 |
| CC12Cc3[nH]nc(C(=O)Nc4cnn(C(c5ccccc5)C5CC[S+]([O-])CC5)c4)c3CC1C2(F)F (single isomer, unassigned) [Example 142b, 5,5-difluoro-5a-methyl-N-(1-((1-oxidotetrahydro-2H-thiopyran-4-yl)(phenyl)methyl)-1H-pyrazol-4-yl)-1,4,4a,5,5a,6-hexahydrocyclopropa[f]indazole-3-carboxamide] | > 10.00 |
| CC1(C)CCc2c(C(=O)Nc3cnn(C(c4ccccc4)C4CN(CCF)C4)c3)n[nH]c2C1 (single isomer, unassigned) [Example 75a, N-(1-((1-(2-fluoroethyl)azetidin-3-yl)(phenyl)methyl)-1H-pyrazol-4-yl)-6,6-dimethyl-4,5,6,7-tetrahydro-1H-indazole-3-carboxamide] | 8.70 |
| N#Cc1cccc(Cn2cc(NC(=O)c3n[nH]c4c3CCCC4)cn2)c1 [Example 3, N-(1-(3-cyanobenzyl)-1H-pyrazol-4-yl)-4,5,6,7-tetrahydro-1H-indazole-3-carboxamide] | 7.51 |
| CC1(C)CCc2c(C(=O)Nc3cnn(C(CO)c4ccccc4)c3)n[nH]c2C1 (single isomer, unassigned) [Example 53a, N-(1-(2-hydroxy-1-phenylethyl)-1H-pyrazol-4-yl)-6,6-dimethyl-4,5,6,7-tetrahydro-1H-indazole-3-carboxamide] | 8.30 |
| CN1CCC2(CCc3c(C(=O)Nc4cnn(Cc5ccccc5)c4)n[nH]c3C2)C1=O (single isomer, unassigned) [Example 123a, N-(1-benzyl-1H-pyrazol-4-yl)-1′-methyl-2′-oxo-1,4,5,7-tetrahydrospiro[indazole-6,3′-pyrrolidine]-3-carboxamide] | 7.06 |
| CN1CCN(CC(c2ccccc2)n2cc(NC(=O)c3n[nH]c4c3CCC(C)(C)C4)cn2)C1=O (single isomer, unassigned) [Example 131b, 6,6-dimethyl-N-(1-(2-(3-methyl-2-oxoimidazolidin-1-yl)-1-phenylethyl)-1H-pyrazol-4-yl)-4,5,6,7-tetrahydro-1H-indazole-3-carboxamide] | 7.96 |
| CC1(C)CCc2c(C(=O)Nc3cnn(C(CO)c4ccccc4)c3)n[nH]c2C1 (single isomer, unassigned) [Example 53b, N-(1-(2-hydroxy-1-phenylethyl)-1H-pyrazol-4-yl)-6,6-dimethyl-4,5,6,7-tetrahydro-1H-indazole-3-carboxamide] | 7.54 |
| CC(c1ccncc1)n1cc(NC(=O)c2n[nH]c3c2CCC(C)(C)C3)cn1 (single isomer, unassigned) [Example 107b, 6,6-dimethyl-N-(1-(1-(pyridin-4-yl)ethyl)-1H-pyrazol-4-yl)-4,5,6,7-tetrahydro-1H-indazole-3-carboxamide] | 7.85 |
| CC1CC(C(c2ccccc2)n2cc(NC(=O)c3n[nH]c4c3CCC(C)(C)C4)cn2)CCS1(=O)=O (single isomer, unassigned) [Example 139h, 6,6-dimethyl-N-(1-((2-methyl-1,1-dioxidotetrahydro-2H-thiopyran-4-yl)(phenyl)methyl)-1H-pyrazol-4-yl)-4,5,6,7-tetrahydro-1H-indazole-3-carboxamide] | 7.92 |
